ChEMBL document CHEMBL1201862, “PubChem BioAssay data set” (2004)
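Grown in 96-well plates, cells were treated for 48 hours with each compound at five concentrations. Insufficient inhibition: endpoint recorded as highest concentration tested. GI50 = concentration required for 50% inhibition of growth.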 The source made the active and inactive calls. No stated cut-off is given here; in the data, active = GI50 up to about 1.1 µM and inactive = higher.

Assays:
Assay in all cases: DTP human tumour cell line panel, 48 h
BT-549 = test system: BT-549
CAKI-1 = test system: CAKI-1
CCRF-CEM = test system: CCRF-CEM
EKVX = test system: EKVX
HCT-116 = test system: HCT-116
K562 = test system: K562
M14 = test system: M14
MCF7 = test system: MCF7
MDA-MB-231 = test system: MDA-MB-231
MDA-N = test system: MDA-N
NCI-H460 = test system: NCI-H460
NCI-H522 = test system: NCI-H522
OVCAR-4 = test system: OVCAR-4
PC-3 = test system: PC-3
SK-MEL-5 = test system: SK-MEL-5
SW-620 = test system: SW-620
T47D = test system: T47D
TK-10 = test system: TK-10
UACC-257 = test system: UACC-257
UACC-62 = test system: UACC-62

Measured: GI50

Cc1ccc(/N=N/C(=N\c2ccc(Cl)cc2)c2ccc(N(CCC#N)CCC#N)cc2)cc1
inactive: BT-549 16.7 µM | CAKI-1 > 100 µM | CCRF-CEM 21.6 µM | EKVX 22.9 µM | HCT-116 49 µM | K562 > 100 µM | M14 30.8 µM | MCF7 21.6 µM | MDA-MB-231 25.8 µM | MDA-N 55.6 µM | NCI-H460 18.1 µM | NCI-H522 19.4 µM | OVCAR-4 51.4 µM | PC-3 22.6 µM | SK-MEL-5 2.63 µM | SW-620 58.9 µM | T47D 12.5 µM | TK-10 21.7 µM | UACC-257 12.4 µM | UACC-62 11.8 µM

CC[C@H]1C=CCC[C@@]2(C[C@@H]3CC[C@@H]4[C@H](C(=O)OCCCCCCCCCCCCCCCC(=O)N(CCCNC(C)=O)C[C@H](CCNC(C)=O)OC(C)=O)[C@]5(CCC[C@@H](C)O5)NC(=[N+]34)N2)O1
active: BT-549 0.453 µM | CAKI-1 0.561 µM | CCRF-CEM 0.00184 µM | EKVX 0.392 µM | HCT-116 0.0405 µM | K562 0.168 µM | M14 0.129 µM | MCF7 0.0861 µM | MDA-MB-231 0.0914 µM | MDA-N 0.0466 µM | NCI-H460 0.131 µM | NCI-H522 0.0331 µM | OVCAR-4 0.183 µM | PC-3 0.0349 µM | SK-MEL-5 0.124 µM | SW-620 0.264 µM | T47D 0.249 µM | TK-10 0.759 µM | UACC-257 0.0281 µM | UACC-62 0.0752 µM

[O-][N+]1(CC[N+]2([O-])CCCCC2)CCCCC1
inactive: BT-549 > 100 µM | CAKI-1 > 100 µM | CCRF-CEM > 100 µM | EKVX > 100 µM | HCT-116 > 100 µM | K562 > 100 µM | M14 > 100 µM | MCF7 > 100 µM | MDA-MB-231 > 100 µM | MDA-N > 100 µM | NCI-H460 > 100 µM | NCI-H522 > 100 µM | OVCAR-4 > 100 µM | PC-3 > 100 µM | SK-MEL-5 > 100 µM | SW-620 > 100 µM | T47D > 100 µM | TK-10 > 100 µM | UACC-62 > 100 µM

CC[C@@]1(O)C(=O)OCc2c1cc1n(c2=O)Cc2c-1nc1ccccc1c2/C=N\NC(=O)C(N)CS (stereo not given in full)
active: CAKI-1 0.495 µM | CCRF-CEM 0.0446 µM | M14 0.665 µM | MCF7 0.206 µM | NCI-H460 0.363 µM | NCI-H522 0.883 µM | T47D 0.1 µM | UACC-62 0.0614 µM
inactive: BT-549 10.8 µM | EKVX 47 µM | HCT-116 1.7 µM | K562 1.5 µM | MDA-MB-231 78.9 µM | MDA-N 9.4 µM | OVCAR-4 53.2 µM | PC-3 3.52 µM | SK-MEL-5 1.13 µM | SW-620 1.37 µM | TK-10 > 84.9 µM | UACC-257 7.26 µM

O=C1c2c(ccc3c2CCCC3)CC12Cc1ccccc1C2
inactive: BT-549 81.8 µM | CAKI-1 7.62 µM | CCRF-CEM 10.8 µM | EKVX 20 µM | HCT-116 5.43 µM | K562 11.8 µM | M14 21 µM | MCF7 17 µM | MDA-MB-231 18.1 µM | MDA-N 6.43 µM | NCI-H460 4.93 µM | NCI-H522 12.8 µM | OVCAR-4 40.8 µM | PC-3 22.9 µM | SK-MEL-5 6.19 µM | SW-620 4.88 µM | T47D 17.9 µM | TK-10 28 µM | UACC-257 16.6 µM | UACC-62 13.5 µM

O=C1CSC2=NC3=C(COC/C3=C\c3ccc(F)cc3)C(c3ccc(F)cc3)N12 (stereo not given)
inactive: BT-549 > 100 µM | CAKI-1 > 100 µM | CCRF-CEM 25.8 µM | EKVX 83.8 µM | HCT-116 35.9 µM | K562 34.4 µM | M14 35.5 µM | MCF7 42 µM | MDA-MB-231 > 100 µM | MDA-N 41.7 µM | NCI-H460 38.1 µM | NCI-H522 28.2 µM | OVCAR-4 50.9 µM | PC-3 34.8 µM | SK-MEL-5 71.4 µM | SW-620 46 µM | T47D 58.5 µM | TK-10 99.5 µM | UACC-257 > 100 µM | UACC-62 > 100 µM

C/C=C/CC(C(=O)OCC)(N(C)C(=O)OC(C)(C)C)S(=O)(=O)c1ccc(C)cc1 (stereo not given)
inactive: BT-549 > 100 µM | CAKI-1 > 100 µM | CCRF-CEM > 100 µM | EKVX > 100 µM | HCT-116 70.6 µM | K562 70.5 µM | M14 50.6 µM | MCF7 53.7 µM | MDA-MB-231 > 100 µM | MDA-N 22.1 µM | NCI-H522 57.7 µM | OVCAR-4 > 100 µM | PC-3 71.8 µM | SK-MEL-5 88.7 µM | SW-620 56.5 µM | T47D > 100 µM | TK-10 > 100 µM | UACC-257 > 100 µM | UACC-62 61.9 µM

Cc1ccc(/C=C2\CCC/C(=C\c3ccc(O)c(CN4CCCCC4)c3)C2=O)cc1
inactive: BT-549 6.62 µM | CAKI-1 14.6 µM | EKVX 12.6 µM | HCT-116 2.74 µM | K562 3.56 µM | M14 3.73 µM | MCF7 4.44 µM | MDA-MB-231 5.41 µM | MDA-N 4.22 µM | NCI-H460 3.96 µM | NCI-H522 3.85 µM | OVCAR-4 11.1 µM | PC-3 8.05 µM | SK-MEL-5 6.1 µM | SW-620 3.6 µM | T47D 13.4 µM | TK-10 14.6 µM | UACC-257 5.09 µM | UACC-62 3.92 µM

O=C(/C=C/c1ccc2c(c1)OCO2)Cc1nc2ncccc2[nH]c1=O
inactive: BT-549 > 100 µM | CAKI-1 > 100 µM | CCRF-CEM > 100 µM | EKVX > 100 µM | HCT-116 > 100 µM | K562 5.55 µM | M14 > 100 µM | MCF7 > 100 µM | MDA-MB-231 > 100 µM | MDA-N > 100 µM | NCI-H460 > 100 µM | NCI-H522 60.7 µM | PC-3 > 100 µM | SK-MEL-5 > 100 µM | SW-620 > 100 µM | T47D 78.3 µM | TK-10 42.8 µM | UACC-257 > 100 µM | UACC-62 9.53 µM

COc1ccc(C2=Nn3c(nc4sc(C)c(C)c4c3=O)SC2)cc1
inactive: BT-549 > 100 µM | CAKI-1 > 100 µM | CCRF-CEM > 100 µM | EKVX > 100 µM | HCT-116 > 100 µM | K562 > 100 µM | MCF7 > 100 µM | MDA-MB-231 > 100 µM | MDA-N > 100 µM | NCI-H460 > 100 µM | NCI-H522 > 100 µM | OVCAR-4 > 100 µM | PC-3 > 100 µM | SK-MEL-5 > 100 µM | SW-620 > 100 µM | T47D > 100 µM | TK-10 > 100 µM | UACC-257 > 100 µM | UACC-62 > 100 µM
